Test results from patent US20160038439A1, “Use of 7-a-[9-(4,4,5,5,5-pentafluoropentylsulfinyl)nonyl]-estra-1,3,5(10)- triene-3,17B-diol and derivatives thereof” (XI'ANLIBANG PHARMACEUTICAL TECHNOLOGY CO., LTD., priority 2013, published 2016).
Marks after values point to notes of the source that are not given here.

Key:
[1] = system: chicken type II collagen-induced arthritis model in SD rats; test: Hindfoot joint score in chicken type II collagen-induced arthritis model in SD rats; format: in vivo; parameters: scale not given here; conditions: tail vein, every other day
Method: (§1) After inflamed model was successfully established in SD rats, the SD rats were randomly divided into model control group (12 rats), low, medium dose group (8 rats for each), and high dose group (12 rats) of test drug depending on body weight. Rats in the model control group were administered a blank fat emulsion injection (0.5 mL) by tail vein injection every other day for 7 days; rats in the low and medium dose group of test drug were administered a fat emulsion injection of a compound of Formula A (specifically including Compounds I-VI described hereafter) by tail vein injection every other day for 7 days; rats in the high dose group of test drug were administered a fat emulsion injection of a compound of Formula A by tail vein injection every other day for 14 days. 12 same models in the normal control group were also administered a blank fat emulsion injection. Indexes such as hindfoot joint score, hindfoot joint thickness measurement, TNF-α level in serum and hindfoot joint tissues, hindfoot joint pathological section and the like were used to evaluate efficacy of the drug.
(§2) Chicken type II collagen was dissolved in 0.1 mol/L acetic acid at 4° C. while stirring so as to be thoroughly dissolved at a concentration of 2 mg/mL The resulting solution was put into a refrigerator at 4° C. overnight. Liquid paraffin and lanolin were mixed at a ratio of 2:1 (volume ratio), and the mixture was autoclaved to prepare an incomplete Freund's adjuvant (IFA). Bacillus Calmette Guerin (BCG) vaccine (60 mg) was inactivated at 80° C. for 1 hour and transferred to a mortar, into which was dropwise added IFA. After being uniformly grinded, the resulting mixture was pushed and sucked repeatedly by double-syringe to prepare a complete Freund's adjuvant (CFA), with the final concentration of BCG vaccine being 2 mg/mL. An equal amount of chicken type II collagen acid solution was mixed with CFA into a stable emulsion (containing 1 mg chicken type II collagen per milliliter).
(§3) 12 female SD rats were randomly selected from 192 female SD rats as normal control group. The remaining 180 rats was disinfected with iodine tincture. After being deiodinated with 75% ethanol, each of the rat was administered 150 μL collagen emulsion by intradermal injection at the base of the tail, and was administered 100 μL collagen emulsion by intradermal injection at the vola pedis of right hindfoot. Thus, totally 250 μL for each rat was administered. 7 days later, an equal amount of collagen emulsion was intraperitoneal injected as a secondary immune.
(§4) Animal grouping and administration: inflamed rats were divided into model control group, low, medium and high dose groups of test drug based on body weight.
(§5) Rats in each group were scored for the hindfoot joint and measured for the thickness of ankle joint before being inflamed. Normal rats were taken blood from orbital venous plexus. The serum of the blood was separated out and cryopreserved at −20° C. to detect cytokines. Rats were scored for joint after being inflamed for 3 days, and were measured for the thickness of ankle joint before administration (on the 19th day since being inflamed), on the 3rd day and 8th day after administration (on the […] since being inflamed). Rats in each group were taken blood from orbital venous plexus when inflammation was severe (on the 23rd day after being inflamed). The serum of the blood was separated out and cryopreserved at −20° C. 8 rats for each group were sacrificed on the 28th day after being inflamed and were taken blood from intraperitoneal vein. The serum of the blood was separated out and was subjected to serological detection (TNF-α). The rest of rats were sacrificed on the 35th day after being inflamed, and histology index detection was carried out

TNF-α [2] = test: TNF-α level in hindfoot ankle joint tissue of rats with arthritis; format: in vivo, SD rats
Method: as §1
(§6) Compound I used in the present invention was purchased from Xi′ an Libang Pharmaceutical Co., Ltd.; Compounds II-IV were synthesized by the following method. SD rats used in the present invention were purchased from Super-B&K Laboratory Animal Corp. Ltd.; chicken type II collagen was purchased from Sigma, Lot No. 87H5227; rat tumor necrosis factor-α [TNF-α] enzyme-linked immunoassay kit (ELISA) was purchased from Shanghai Biovol Biotech Co., Ltd., Lot No. BV-E12102201.
as §2, §3, §4
as §5, with “8 rats for each group were sacrificed on the 28th day after being inflamed and were taken blood from intraperitoneal vein. The serum of the blood was separated out and was subjected to serological detection (TNF-α). The rest of rats were sacrificed on the 35th day after being inflamed, and histology index detection was carried out” left out

[3] = system: chicken type II collagen-induced arthritis model in SD rats; test: Pathological examination score of hindfoot ankle joint of rats with arthritis; format: in vivo; conditions: high dose group (1.40-2.16 mg/kg per compound), every other day for 14 days, n=4
Method: as §1, §2
12 female SD rats were randomly selected from 192 female SD rats as normal control group. The remaining 180 rats was disinfected with iodine tincture. After being deiodinated with 75% ethanol, each of the rat was administered 150 μL collagen emulsion by intradermal injection at the base of the tail, and was administered 100 μL collagen emulsion by intradermal injection at the vola pedis of right hindfoot. […]
Rats in each group were scored for the hindfoot joint and measured for the thickness of ankle joint before being inflamed. […] Rats were scored for joint after being inflamed for 3 days, and were measured for the thickness of ankle joint before administration (on the 19th day since being inflamed), on the 3rd day and 8th day after administration (on the 20th day since being inflamed). […]

TNF-α [4] = test: TNF-α level in serum of rats with arthritis (ELISA); format: in vivo, SD rats
Method: as §1, §6, §2, §3, §4
as §5, with “8 rats for each group were sacrificed on the 28th day after being inflamed and were taken blood from intraperitoneal vein. The serum of the blood was separated out and was subjected to serological detection (TNF-α). The rest of rats were sacrificed on the 35th day after being inflamed, and histology index detection was carried out” left out

[5] = system: chicken type II collagen-induced arthritis model in SD rats; test: Thickness of right hindfoot ankle joint by microcalliper, collagen-induced arthritis rats; format: in vivo
Method: as §1, §2, §3, §4, §5

[6] = high dose group, before administration (baseline)
[7] = high dose group, the 3rd day after administration
[8] = high dose group, the 8th day after administration
[9] = low dose group, before administration (baseline)
[10] = low dose group, the 3rd day after administration
[11] = low dose group, the 8th day after administration
[12] = medium dose group, before administration (baseline)
[13] = medium dose group, the 3rd day after administration
[14] = medium dose group, the 8th day after administration
[15] = left ankle joint, high dose group
[16] = left ankle joint, low dose group
[17] = left ankle joint, medium dose group
[18] = right ankle joint, high dose group
[19] = right ankle joint, low dose group
[20] = right ankle joint, medium dose group

| Substance | Mean value of hindfoot joint score [1, 6] | Mean value of hindfoot joint score [1, 7] | Mean value of hindfoot joint score [1, 8] | Mean value of hindfoot joint score [1, 9] | Mean value of hindfoot joint score [1, 10] | Mean value of hindfoot joint score [1, 11] | Mean value of hindfoot joint score [1, 12] | Mean value of hindfoot joint score [1, 13] | Mean value of hindfoot joint score [1, 14] | TNF-α level in ankle (mean ± SD) (TNF-α [2]; [15]) | TNF-α level in ankle (mean ± SD) (TNF-α [2]; [16]) | TNF-α level in ankle (mean ± SD) (TNF-α [2]; [17]) | TNF-α level in ankle (mean ± SD) (TNF-α [2]; [18]) | TNF-α level in ankle (mean ± SD) (TNF-α [2]; [19]) | TNF-α level in ankle (mean ± SD) (TNF-α [2]; [20]) | Joint lesion score (mean ± SD) [3] | TNF-α level in serum (mean ± SD) (TNF-α [4]; [7]) | TNF-α level in serum (mean ± SD) (TNF-α [4]; [8]) | TNF-α level in serum (mean ± SD) (TNF-α [4]; [10]) | TNF-α level in serum (mean ± SD) (TNF-α [4]; [11]) | further results |
| --- | --- | --- | --- | --- | --- | --- | --- | --- | --- | --- | --- | --- | --- | --- | --- | --- | --- | --- | --- | --- | --- |
| 7-α-[9-(4,4,5,5,5-pentafluoropentylsulfinyl)nonyl]-estra-1,3,5(10)-triene-3-hydroxyl-17-docosanoyl [Compound III] | 5.4 | 4.8**^# | 5.6 | 4.5 | 5.3**^## | 5 | 5 | 4.8** | 5.4 | 11.05 ± 3.96 pg/mL | 12.93 ± 4.15 pg/mL | 13.62 ± 3.42 pg/mL | 13.85 ± 3.38 pg/mL | 14.13 ± 4.20 pg/mL | 12.02 ± 5.91 pg/mL | 1.50 ± 1.91 | 16.53 ± 15.71 pg/mL | 10.36 ± 7.08 pg/mL | 81.94 ± 141.25 pg/mL | 157.89 ± 248.01 pg/mL | TNF-α level in serum (mean ± SD) (TNF-α [4]; [13]): 12.31 ± 17.56 pg/mL; TNF-α level in serum (mean ± SD) (TNF-α [4]; [14]): 39.56 ± 29.29 pg/mL; Thickness of ankle joint (mean ± SD) [5, 6]: 6.59 ± 0.44 mm; Thickness of ankle joint (mean ± SD) [5, 7]: 6.55 ± 0.56 mm; Thickness of ankle joint (mean ± SD) [5, 8]: 6.31 ± 0.69 mm; Thickness of ankle joint (mean ± SD) [5, 9]: 5.94 ± 0.52 mm; Thickness of ankle joint (mean ± SD) [5, 10]: 6.22 ± 0.38 mm; Thickness of ankle joint (mean ± SD) [5, 11]: 6.06 ± 0.29 mm; Thickness of ankle joint (mean ± SD) [5, 12]: 6.33 ± 0.52 mm; Thickness of ankle joint (mean ± SD) [5, 13]: 6.45 ± 0.53 mm; Thickness of ankle joint (mean ± SD) [5, 14]: 6.36 ± 0.46 mm |
| 7-α-[9-(4,4,5,5,5-pentafluoropentylsulfinyl)nonyl]-estra-1,3,5(10)-triene-3-hydroxyl-17-undecanoyl [Compound II] | 4.7 | 5.3**^# | 4.9 | 4.9 | 4.8** | 5.6^# | 4.9 | 4.9** | 4.9 | 14.08 ± 4.09 pg/mL | 13.79 ± 4.68 pg/mL | 15.91 ± 5.84 pg/mL | 15.11 ± 4.32 pg/mL | 13.79 ± 3.26 pg/mL | 12.13 ± 3.35 pg/mL | 2.50 ± 2.65 | 26.72 ± 35.26 pg/mL | 25.65 ± 20.66 pg/mL | 48.28 ± 94.84 pg/mL | 201.35 ± 250.23 pg/mL | TNF-α level in serum (mean ± SD) (TNF-α [4]; [13]): 11.00 ± 9.39 pg/mL; TNF-α level in serum (mean ± SD) (TNF-α [4]; [14]): 75.12 ± 93.40 pg/mL; Thickness of ankle joint (mean ± SD) [5, 6]: 6.31 ± 0.52 mm; Thickness of ankle joint (mean ± SD) [5, 7]: 6.29 ± 0.69 mm; Thickness of ankle joint (mean ± SD) [5, 8]: 5.83 ± 0.61 mm; Thickness of ankle joint (mean ± SD) [5, 9]: 6.39 ± 0.68 mm; Thickness of ankle joint (mean ± SD) [5, 10]: 6.05 ± 0.55 mm; Thickness of ankle joint (mean ± SD) [5, 11]: 5.98 ± 0.19 mm; Thickness of ankle joint (mean ± SD) [5, 12]: 5.99 ± 0.57 mm; Thickness of ankle joint (mean ± SD) [5, 13]: 6.31 ± 0.54 mm; Thickness of ankle joint (mean ± SD) [5, 14]: 6.31 ± 0.51 mm |
